This data set relates to human keratinocyte cell line HaCaT. As to the kind of experiment: Neutral Red Uptake (NRU) cytotoxicity test with HaCaT cells. Format: cell-based.

Source text: NRU50 values are the NRU values used in the present invention. They characterize the concentration of a substance or composition, at which the up-take of the dye neutral red is reduced to about 50% in human keratinocyte cells. Neutral red (3-amino-7-dimethylamino-2-methyl phenazine hydrochloride) is a weak cationic dye, which easily diffuses from an outer medium through a cell membrane separating individual cells into the cell interior. Changes in the cell surface or the cell membrane by potentially harmful substances reduce the dye uptake and the retention of the dye in the cell. A high NRU50 value means a slight cell-damaging action and low cytotoxicity and is a hint of an improved eye compatibility of the tested substance or composition.
The neutral red (3-amino-7-dimethylamino-2-methyl phenazine hydrochloride) taken up by the cells exposed to the test substance is extracted and measured spectrophotometrically at 540 nm. Toxicological effects cause a reduction in the amount of taken-up neutral red in comparison to separate untreated control cells. The concentration of the test substance, which leads to a reduction of the up-taken and bound neutral red amount of about 50% in comparison to the control cells, is the NRU50-value.
The HaCaT cells are grown in Dulbecco's modified Eagle's medium with 2 mM L-glutamin, 10% (v/v) foetal calf serum (FCS), 100 IU penicillin and 100 μg/ml streptomycin added in an atmosphere having 95% humidity and 5% CO2.
In pretests an approximate NRU50 value is determined with 8 different concentrations of the test substance. On this basis eight suitable concentrations around these approximate values are selected for the final measurements. The measurement is repeated with an independent batch with equal concentrations. Sodium lauryl sulfate with concentrations of 50, 25, 10 and 1 μg/ml is used as reference substance.
Approximately 2*10^4 HaCaT cells in 250 μl growth medium per receptacle are placed in 60 central receptacles of microtiter plates each with 96 receptacles. The corner receptacles act as controls and contain only the growth medium. The plates are incubated for 24 hours at 37° C. in a moist atmosphere with 5% CO2 and 95% air. The culture medium is removed and either replaced by pure treatment medium or by treatment medium containing the various concentration of the test substance to be tested or the reference substance.
After an acting time of 24 hours the treatment medium is replaced by storage medium, which contains 50 μg/ml of neutral red. The plates are placed again in the incubator for three hours. After that the medium is removed, the cells washed with a fixative (1% formaldehyde, 1% calcium chloride) and 100 μl of an extraction solution (1% acetic acid in 50% ethanol) is added to each receptacle for dye extraction. After 20 minutes the absorption is measured at 540 nm with a microplate reader. Concentration/effectiveness diagrams are drawn or plotted, expressed as percent viability of the negative control cells (CC) relative to the respective test concentrations from the average values and after correction with the null value from the BC receptacles.

Ceteareth-20 [EUMULGIN® B2] showed an NRU of 5.8 µg/mL.

Oleth-5 [EUMULGIN® 05] showed an NRU of 7.8 µg/mL.

In the case of Oleth-20 [VOLPO® N20], the NRU worked out at 6.2 µg/mL.

“PEG-40 Hydrogenated Castor Oil [CREMOPHOR® RH 410]” had an NRU50 of 188 µg/mL.

With “PEG-60 Hydrogenated Castor Oil [CREMOPHOR® CO60]”, the NRU50 was 203 µg/mL.

Values taken from patent US7399479B2, “Microemulsions, especially for skin or hair treatment” (Wella AG, priority 2004, dated 2008).
